Read-outs that look alike come from different tables or passages of the source. One block for each molecule: values may come before it. Primed or numbered codes have the meaning given here. Ends that are not written are not given here. Me3 = trimethyl on the lysine side chain; Me3″ = trimethyl (on lysine)
Experiments:
[1] = target: T1, JMJD2E (Homo sapiens, UniProt B2RXH2); settings: read-out: IC50 (FDH), cited from earlier work
T1 sequence (B2RXH2 1-337): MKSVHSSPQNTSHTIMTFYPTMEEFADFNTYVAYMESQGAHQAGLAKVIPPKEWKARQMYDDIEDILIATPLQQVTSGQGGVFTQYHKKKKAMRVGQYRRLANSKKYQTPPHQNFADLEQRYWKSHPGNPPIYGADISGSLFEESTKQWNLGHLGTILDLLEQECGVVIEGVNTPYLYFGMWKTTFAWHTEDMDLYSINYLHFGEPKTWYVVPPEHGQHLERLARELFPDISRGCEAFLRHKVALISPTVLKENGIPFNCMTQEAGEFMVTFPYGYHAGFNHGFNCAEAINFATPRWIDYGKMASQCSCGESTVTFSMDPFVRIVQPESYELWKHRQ

[2] = target: T1, JMJD2E; settings: cited from earlier work
[3] = target: T1, JMJD2E; assay: JMJD2E-peptide binding AlphaScreen assay
[4] = target: histone H3K9me3 peptide (Homo sapiens) (UniProt P68431); assay: SPR; settings: cited from earlier work
[5] = target: T2, N-terminally His-tagged catalytic domain of recombinant JMJD2E (residues 1-337) (UniProt B2RXH2 1-337); assay: AlphaScreen or HTRF
T2 sequence (looked up): T1 sequence (B2RXH2 1-337)

Molecule: O=C(O)c1cccnc1C(=O)O [Compound 2, 2,3-PDCA]
- IC50 [1]: > 5000 µM

- concentration at signal maximum in binding assay ([3]; JMJD2E pre-incubated with 2OG prior to biotinylated-H3(1-15)K9Me3): 10 to 30 µM
Molecule: O=C(O)CCC(=O)C(=O)O [Compound 2OG, 2-oxoglutarate]
- Km [2]: 14 µM

Molecule: O=C(O)c1ccc(C(=O)O)nc1 [Compound 3, 2,5-PDCA]
- IC50 ([1]; listed as 2,5-PDCA (3)): 180 µM

Molecule: O=C(O)c1ccc(C(=O)O)nc1 [Compound 4, 3,6-PDCA]
- IC50 ([1]; listed as 3,6-PDCA (4)): > 1000 µM

Molecule: H3(6-21)K9Me3: histone H3 residues 6-21 peptide with tri-methyl lysine 9 (TARK(Me3″)STGGKAPRKQLA-NH2)
- relative JMJD2E affinity in the binding assay ([3]; competition of unlabelled peptide with biotin-H3(1-15)K9Me3): higher JMJD2E affinity than H3(1-15)K9Me3

Molecule: JMJD2A (from UniProt O75164)
- Kd [4]: 1 µM

- IC50 [5]: 1.2 µM
B1: unlabelled H3(1-15)K9Me3 peptide (peptide, UniProt P68431 2-16, looked up)
peptide: ARTKQTARKSTGGKA
modifications: trimethyl-lysine at K9; C-terminal amide

- binding result [5]: binds
B2: H3(6-21)K9Me3 peptide (peptide, UniProt P68431 7-22, looked up)
peptide: TARK(Me3)STGGKAPRKQLA-NH2

— PMC4673899 (Analytical biochemistry, 2010)
